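The compound was tested at five concentrations on cells cultured in 96-well plates, with a 48-hour exposure period. GI50 = concentration required for 50% inhibition of growth. TGI denotes the concentration required for complete inhibition of growth.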
How the values were obtained:
Assay in all cases: NCI anticancer screen, dose series, 48 h
[1] = system: A549 NSCLC
[2] = system: CAKI-1 renal
[3] = system: HCT-116 colon
[4] = system: HL-60(TB) leukemia
[5] = system: IGROV1 ovarian
[6] = system: MALME-3M melanoma
[7] = system: MDA-MB-435
[8] = system: OVCAR-5 ovarian
[9] = system: SF-268 CNS
[10] = system: SF-539 CNS

## CCN(Cc1cccc(C)c1)c1ccc(CO)c(Cl)c1
[1]
  GI50: 4.77 µM
  TGI: 20.7 µM
[2]
  GI50: 1.31 µM
  TGI: 14.7 µM
[3]
  GI50: 0.203 µM
  TGI: 10.7 µM
[4]
  GI50: 14.1 µM
  TGI: 41.1 µM
[5]
  GI50: 0.152 µM
  TGI: 1.18 µM
[6]
  GI50: 15.7 µM
  TGI: 33.4 µM
[7]
  GI50: 15.7 µM
  TGI: 32.1 µM
[8]
  GI50: 0.245 µM
  TGI: 1.04 µM
[9]
  GI50: 16.2 µM
  TGI: 31.1 µM
[10]
  GI50: 17.3 µM
  TGI: 32.4 µM

## NC(=S)c1cn(C2OC(CO)C(O)C2O)c2ncnc(N)c12 (centres undefined)
[1]
  GI50: 0.266 µM
  TGI: > 100 µM
[2]
  GI50: 0.221 µM
  TGI: 2.22 µM
[3]
  GI50: 0.0876 µM
  TGI: > 33.9 µM
[4]
  GI50: 0.18 µM
  TGI: 26.7 µM
[5]
  GI50: 0.136 µM
  TGI: 0.586 µM
[6]
  GI50: 0.0279 µM
  TGI: 0.125 µM
[7]
  GI50: 0.0633 µM
  TGI: 0.262 µM
[8]
  GI50: 0.353 µM
[9]
  GI50: 0.284 µM
  TGI: 3.4 µM
[10]
  GI50: 0.27 µM
  TGI: 1.55 µM

## COc1ccc2c(c1)/C(=N/OC(C)=O)c1c-2c(Nc2ccc(/C(C)=N/OC(C)=O)cc2)nc2ccccc12
[1]
  GI50: 59.6 µM
  TGI: > 100 µM
[2]
  GI50: 31.8 µM
  TGI: 98.2 µM
[3]
  GI50: 35 µM
  TGI: > 100 µM
[4]
  GI50: 16.3 µM
  TGI: > 100 µM
[5]
  GI50: 71.6 µM
  TGI: > 100 µM
[6]
  GI50: 56.8 µM
  TGI: > 100 µM
[7]
  GI50: 86.2 µM
  TGI: > 100 µM
[8]
  GI50: > 100 µM
  TGI: > 100 µM
[9]
  GI50: 37.7 µM
  TGI: > 100 µM
[10]
  GI50: > 100 µM
  TGI: > 100 µM

## CC1CCCc2c(CC3CC(=O)NC(=O)C3)nc(N)nc21 (centres undefined)
[1]
  TGI: > 100 µM
[2]
  TGI: > 100 µM
[3]
  TGI: > 100 µM
[4]
  TGI: > 100 µM
[5]
  TGI: > 100 µM
[6]
  TGI: > 100 µM
[7]
  TGI: > 100 µM
[8]
  TGI: > 100 µM
[9]
  TGI: > 100 µM
[10]
  TGI: > 100 µM

## COC(=O)[C@@H](C)C[C@H](Cc1ccccc1)NC(=O)c1csc([C@@H](C[C@H](C(C)C)N(C)C(=O)[C@@H](NC(=O)CN(C)C)C2CC2)OC(C)=O)n1
[1]
  GI50: 0.24 µM
  TGI: > 16.5 µM
[2]
  GI50: 1.3 µM
  TGI: > 16.5 µM
[3]
  GI50: 0.0154 µM
  TGI: > 5.86 µM
[4]
  GI50: 0.00272 µM
  TGI: 0.0106 µM
[5]
  GI50: 0.0245 µM
  TGI: > 16.5 µM
[6]
  GI50: 0.0365 µM
  TGI: > 16.5 µM
[7]
  GI50: 0.00192 µM
  TGI: < 0.0153 µM
[8]
  GI50: 0.838 µM
  TGI: > 16.5 µM
[9]
  GI50: 0.0373 µM
  TGI: > 16.5 µM
[10]
  GI50: 0.022 µM
  TGI: 0.0925 µM

## CCOC(=O)CCC(NC(=O)c1ccc(Nc2nc3cc(N)cc(N)c3nc2-c2ccccc2)cc1)C(=O)OCC (centres undefined)
[1]
  GI50: 27.8 µM
  TGI: > 100 µM
[2]
  GI50: > 52.6 µM
  TGI: > 100 µM
[3]
  GI50: > 38.7 µM
  TGI: > 71.6 µM
[4]
  GI50: 9.62 µM
  TGI: 50.7 µM
[5]
  GI50: 22.6 µM
  TGI: > 94.7 µM
[6]
  GI50: 8.1 µM
  TGI: 15.8 µM
[7]
  GI50: 29.9 µM
  TGI: > 60.4 µM
[8]
  GI50: 57.1 µM
  TGI: > 93.2 µM
[9]
  GI50: 34.2 µM
  TGI: > 100 µM
[10]
  GI50: 27.3 µM
  TGI: > 100 µM

## CCN(CC)Cc1cc(Nc2c3ccc(Cl)cc3nc3c(C)cccc23)ccc1O
[1]
  GI50: 1.64 µM
  TGI: 4.64 µM
[2]
  GI50: 1.53 µM
  TGI: 2.92 µM
[3]
  GI50: 0.982 µM
  TGI: 2.21 µM
[4]
  GI50: 2.42 µM
  TGI: 5.24 µM
[5]
  GI50: 0.56 µM
  TGI: 1.78 µM
[6]
  GI50: 1.65 µM
  TGI: 3.13 µM
[7]
  GI50: 1.75 µM
  TGI: 3.14 µM
[8]
  GI50: 2.1 µM
  TGI: 4.86 µM
[9]
  GI50: 1.53 µM
  TGI: 3.09 µM
[10]
  GI50: 1.73 µM
  TGI: 3.12 µM

## CC[C@@]1(O)C(=O)N(CCN(C)C)Cc2c1cc1n(c2=O)Cc2cc3ccccc3nc2-1
[1]
  GI50: 26 µM
  TGI: > 100 µM
[2]
  GI50: 4.27 µM
  TGI: > 100 µM
[3]
  GI50: 12.4 µM
  TGI: > 100 µM
[4]
  GI50: 5.4 µM
  TGI: > 100 µM
[5]
  GI50: 26 µM
  TGI: > 100 µM
[6]
  GI50: > 100 µM
  TGI: > 100 µM
[7]
  GI50: > 100 µM
  TGI: > 100 µM
[8]
  GI50: > 100 µM
  TGI: > 100 µM
[9]
  GI50: 3.59 µM
  TGI: > 100 µM
[10]
  GI50: 3.77 µM
  TGI: 13.1 µM

## Nc1ccc(Sc2ccc3c4c2cccc4c(=O)n2c4ccccc4nc32)cc1
[1]
  GI50: 2.17 µM
  TGI: 12.9 µM
[2]
  GI50: 1.82 µM
  TGI: 8.48 µM
[3]
  GI50: 5.05 µM
  TGI: 26.7 µM
[4]
  GI50: 3.71 µM
  TGI: 12 µM
[5]
  GI50: 3.9 µM
  TGI: 32 µM
[6]
  GI50: 3.12 µM
  TGI: 16.9 µM
[7]
  GI50: 12.6 µM
  TGI: 82.2 µM
[8]
  GI50: 14.9 µM
  TGI: 46 µM
[9]
  GI50: 5.42 µM
  TGI: 80.2 µM
[10]
  GI50: 3.11 µM
  TGI: 15.6 µM

## CCOC(=O)Nc1ccc2nc(Sc3ccc(Cl)cc3)sc2c1
[1]
  GI50: 6.3 µM
  TGI: > 100 µM
[2]
  GI50: 1.95 µM
  TGI: 42 µM
[3]
  GI50: 1.19 µM
  TGI: 39.3 µM
[4]
  GI50: 0.815 µM
  TGI: 30.1 µM
[5]
  GI50: 5.09 µM
  TGI: > 100 µM
[6]
  GI50: 5.7 µM
  TGI: 37.1 µM
[7]
  GI50: 0.222 µM
  TGI: 0.561 µM
[8]
  GI50: 21.6 µM
  TGI: > 100 µM
[9]
  GI50: 8.66 µM
  TGI: > 100 µM
[10]
  GI50: 2.92 µM
  TGI: 22.1 µM

## Cc1cncc2cccc(S(=O)(=O)N3CCCNC[C@@H]3C)c12
[1]
  GI50: 14.6 µM
  TGI: > 100 µM
[2]
  GI50: 5.91 µM
  TGI: > 100 µM
[3]
  GI50: 7.56 µM
  TGI: > 100 µM
[4]
  GI50: 36.2 µM
  TGI: 100 µM
[5]
  GI50: 48.8 µM
  TGI: > 100 µM
[6]
  GI50: 99.5 µM
  TGI: > 100 µM
[7]
  GI50: > 100 µM
  TGI: > 100 µM
[8]
  GI50: 17.1 µM
  TGI: > 100 µM
[9]
  GI50: 4.91 µM
  TGI: > 81.8 µM
[10]
  GI50: 3.17 µM
  TGI: > 56.7 µM

## c1ccc(-c2nn(-c3ccccc3)[n+](-c3ccccc3-c3ccccc3)n2)cc1
[1]
  GI50: 1.07 µM
  TGI: > 100 µM
[2]
  GI50: 16.5 µM
  TGI: 89.9 µM
[3]
  GI50: 0.699 µM
  TGI: > 33.3 µM
[4]
  GI50: 0.238 µM
  TGI: 0.878 µM
[5]
  GI50: 0.868 µM
  TGI: 16.3 µM
[6]
  GI50: 0.248 µM
  TGI: 1.53 µM
[7]
  GI50: 0.461 µM
  TGI: 2.82 µM
[8]
  GI50: 4.19 µM
  TGI: > 100 µM
[9]
  GI50: 1.71 µM
  TGI: > 47.7 µM
[10]
  GI50: 2.03 µM
  TGI: 23.4 µM

## C=C(C)[C@@H]1CC[C@@H]2C(=CC[C@]3(C)C([C@H](C)CC/C=C(/C)C(=O)O)CC[C@@]23C)[C@@]1(C)CCC(=O)O (some centres undefined)
[1]
  TGI: > 100 µM
[2]
  TGI: 68.4 µM
[3]
  TGI: 43.7 µM
[4]
  TGI: 72.5 µM
[5]
  TGI: 88.8 µM
[6]
  TGI: 61 µM
[7]
  TGI: 89.7 µM
[8]
  TGI: > 100 µM
[9]
  TGI: > 100 µM
[10]
  TGI: 89 µM

— PubChem BioAssay (NCI)
